Assay [1] has as its system Sabra mice. The assay is described as follows: Inhibition of tremorogenic, convulsive and lethal effects of NMDA in Sabra mice. Type of assay: in vivo. How it is done:
Sabra mice (an Israeli heterogenous strain) were pretreated with either vehicle alone (control) or HU-211 (1.25 or 2.50 mg/kg; s.c.), followed by NMDA (200 mg/kg; s.c.). […] Similar experiments were performed using C-57 Black mice, in which the dose of NMDA was decreased (100 mg/kg; s.c.). Counteraction by HU-211 of the NMDA-induced effects was more pronounced in the latter strain (which is more sensitive than Sabra mice to the effects of NMDA). In the control series of both strains, which received NMDA without HU-211, all animals died in less than 10 min. following seizure onset.

In assay [2] the test system is NMDA receptor. As to the kind of experiment: Equilibrium binding of [³H]TCP to well-washed rat brain cortical membranes.
Assay [3] concerns NMDA receptor. The assay is described as follows: Kinetics of basal and glutamate/glycine-induced [³H]TCP binding to rat brain cortical membranes. How it is done:
Kinetic experiments were then performed in order to determine whether HU-211 exerts its behavioral effects by acting directly at the glutamate- or the glycine-binding sites of the NMDA receptor.
Like the competitive NMDA antagonist aminophosphovalerate (AP-5), HU-211 reduces the glutamate/glycine potentiation of [³H]TCP binding.
HU-211 reduces the rate of binding of [³H]TCP to the NMDA-receptor channel and the rate of dissociation of [³H]TCP-receptor complexes. • A) Time course of basal (without added agonist) and induced with 1 »M L-glutamate and 1 »M glycine) [³H]TCP binding to the NMDA receptor of rat brain cortical membranes. Data represent the basal binding determined in the absence (●) and in the presence (▲) of 10 »M HU-211, and the induced binding determined in the absence (o) and in the presence (△) of 10 »M HU-211. Binding of [³H]TCP to well-washed control membranes was determined under the following conditions: membranes (80 »g protein) were incubated at 25°C in 200 »l HEPES buffer, pH 7.4, containing 5 nM [³H]TCP (total binding) or 5 nM [³H]TCP and 100 »M PCP (phencyclidine) (nonspecific binding), and the reactions were terminated at the indicated times by rapid filtration over polyethyleneimine-treated GF/C filters. The filters were counted in scintillation liquid (Hydroluma, Lumac Inc., Netherlands). HU-211 was prepared as described elsewhere [Mechoulam, R., et al., Tetrahedron:Asymmetry, 1:315-319 (1990)]. Means values (triplicates) of the specific binding of [³H]TCP (total minus non-specific binding) are plotted as a function of the incubation time. The data shown are from one of three experiments that gave similar results. • (B-C) First-order plots of the basal (B) and the induced (C) dissociation of [³H]TCP-receptor complexes. Data represent the basal (without added agonist) dissociation rates determined in the absence (●) and in the presence (▲) of 10 »M HU-211; the induced (with 1 »M L-glutamate and 1 »M glycine) dissociation rates were determined in the absence (o) and in the presence (△) of 10 »M HU-211. Samples were preincubated as described for Figure 2A, at 25°C with 18 nM [³H]TCP for 2 h. Basal dissociation reactions were initiated by the addition of 100 »M unlabeled PCP with or without 10 »M HU-211. For the induced dissociation reactions 1 »M glutamate and 1 »M glycine were also added. Reactions were terminated either immediately (zero time) or at the indicated times. Beq, amount of [³H]TCP bound at zero time. Bt, amount of [³H]TCP boud at time t. […]
Data represent the concentration-dependent decrease of [³H]TCP binding by HU-211 (o) and by its isomer HU-210 (△). Binding of [³H]TCP (5 nM) was determined as described for Figure 2A, either in the absence (basal) or in the presence (induced) of 1 »M glutamate (A) or of 1 »M glycine (B).
Reactions were terminated after 10 min. Data are expressed as induced over basal binding as a function of isomer concentrations. […]
Non-competitive inhibition of glutamate- or glycine-induced [³H]TCP binding by HU-211. Induced [³H]TCP binding, corresponding to the ratio of binding in the presence of glutamate or glycine to binding in their absence, was determined with 5 nM [³H]TCP at 25°C for 10 min. Binding of (³H)TCP to well-washed rat cortical membranes was determined in triplicate, as described previously [Kloog, Y., et al., Biochemistry, 27: 843-848 (1988)], in the absence (basal) and presence of various concentrations of L-glutamate (a) or glycine (b) with and without HU-211, as indicated. […]

Setting [4] is: Sabra mice, HU-211 2.5 mg/kg s.c. 75 min prior to NMDA 200 mg/kg s.c.

Each structure is given as a SMILES string.

For `CCCCCCC(C)(C)c1cc(O)c2c(c1)OC(C)(C)[C@H]1CC=C(CO)C[C@H]21` [HU-211, (+)-(3S,4S)-1,1-dimethylheptyl homolog of 7-hydroxy-Δ⁶-tetrahydrocannabinol], the “mice that exhibited no tremors or seizures and stayed alive for more than four days following NMDA administration” value in assay [1] (Sabra mice pretreated with HU-211 (2.5 mg/kg s.c.), NMDA 200 mg/kg s.c.) is listed as “two of the five”. Besides, in assay [1] (setting [4]), the Time until death is on record as 20.2 ± 7.0 min, the “Time until first seizure” value is 18.0 ± 7.0 min and the “Time until first tremor” value was determined as 8.2 ± 1.3 min. In addition, in assay [2] (100 »M HU-211), the “equilibrium binding of 5 nM [³H]TCP” value is “not inhibited”. Also, in assay [2] (in the presence of HU-211 10 »M, 2-100 nM [³H]TCP, 1 »M glutamate and 1 »M glycine (control 3.4)), the “maximum binding capacity of [3H]TCP” value was found to be 3.5 pmol/mg protein. In addition, the “dissociation rate of [³H]TCP from the NMDA receptor” value in assay [3] (10 »M HU-211, both in absence and presence of 1 »M glutamate and 1 »M glycine, much more strongly in their presence) is on record as “decreased the dissociation rate”. For the same compound, in assay [3] (Figure 3, stereospecificity), the “inhibition of the induced [³H]TCP binding compared with the (-)enantiomer HU-210” value is recorded as “far more potent inhibitor”. In addition, in assay [3] (HU-211 10 and 5 »M, apparent affinities of glutamate and glycine not altered), the “efficacy of glutamate- or glycine-induced [³H]TCP binding” value is “reduced the efficacy”. The “rate of association of [³H]TCP binding to the NMDA receptor” value in assay [3] (basal (no added agonist), 10 »M HU-211) is “only a small decrease”. In addition, the “association rate of [³H]TCP binding” value in assay [3] (induced: 1 »M glutamate and 1 »M glycine, 10 »M HU-211) is recorded as “marked decrease”.
